# Reference: patent US20240008487A1, “FUNGICIDAL COMPOSITIONS” (SYNGENTA CROP PROTECTION AG, priority 2020, published 2024)
# Experiments:
# Conditions in all cases: alone
# Septoria tritici = Septoria tritici (Leaf Blotch) liquid culture growth inhibition; type: cell-based
# Method: (§1) Conidia of the fungus from cryogenic storage were directly mixed into nutrient broth (PDB potato dextrose broth). A DMSO solution of the test compounds was placed into a microtiter plate (96-well format) and the nutrient broth containing the fungal spores was added to it. The test plates were incubated at 24 C and the inhibition of growth was determined photometrically after 72 hrs.
# [1] = tested on: Glomerella lagenarium syn. Colletotrichum lagenarium; test: Glomerella lagenarium syn. Colletotrichum lagenarium (Anthracnose) liquid culture growth inhibition; type: cell-based
# Method: as §1, with “hrs at 620 nm.” for “hrs.”
# Phakopsora pachyrhizi = Phakopsora pachyrhizi (Soybean Rust) on leaf disks of treated soybean plants; type: in vivo
# Method: Whole soybean plants are treated with the recited active ingredients 4 weeks after planting. 1 day after spraying leaf disks are cut from the first trifoliate leaf. Five repetitions at each rate are conducted. The leaf disks are inoculated with Phakopsora pachyrhizi (Asian soybean rust) one day after treatment. Evaluation of the leaf disks is conducted 11 to 14 days after inoculation and the activity is derived from the relation of the treated vs untreated, infested check. The rates of the active ingredients used are given in Table as g active ingredient (a.i.)/ha.
# Septoria glycines = Septoria glycines (Brown Spot) liquid culture growth inhibition; type: cell-based
# Method: as §1, with “visually” for “photometrically”
# Corynespora cassiicola = Corynespora cassiicola (Target Leaf Spot) liquid culture growth inhibition; type: cell-based
# Method: as §1, with “3-4 days at 620 nm.” for “72 hrs.”
# Sclerotinia sclerotiorum = Sclerotinia sclerotiorum (White Mold) liquid culture growth inhibition; type: cell-based
# Method: as §1, with “Mycelial fragments” for “Conidia”, “fungus prepared” for “fungus”, “a fresh liquid culture” for “cryogenic storage”, “hrs at 620 nm” for “hrs.”
# Botrytis cinerea = Botrytis cinerea (Gray Mould) liquid culture growth inhibition; type: cell-based
# Method: as §1
compound,measurement,setting,value
"O=C(Nc1ccccc1F)c1ccc(-c2noc(C(F)(F)F)n2)cc1 [N-(2-fluorophenyl)-4-[5-(trifluoromethyl)-1,2,4-oxadiazol-3-yl]benzamide]",Observed Activity,Septoria tritici; 2.22 ppm,0%
same,Observed Activity,Septoria tritici; 6.66 ppm,0%
same,Observed Activity,Septoria tritici; 20 ppm,0%
same,Observed Activity,[1]; 2.22 ppm,0%
same,Observed Activity,[1]; 6.66 ppm,0%
same,Observed Activity,[1]; 20 ppm,0%
same,Observed Activity,Phakopsora pachyrhizi; 0.3 g/ha,0%
same,Observed Activity,Phakopsora pachyrhizi; 0.6 g/ha,35%
CCN(C)C=Nc1cc(C)c(Oc2ccccc2)cc1Cl [N′-(2-chloro-5-methyl-4-phenoxy-phenyl)-N-ethyl-N-methyl-formamidine],Observed Activity,Septoria glycines; 0.625 ppm,70%
same,Observed Activity,Septoria tritici; 0.625 ppm,20%
same,Observed Activity,Phakopsora pachyrhizi; 1.5 g/ha,71%
same,Observed Activity,Phakopsora pachyrhizi; 3 g/ha,71%
"N#Cc1ccc(Oc2ccc(C(F)(F)C(O)(Cn3nc[nH]c3=S)c3ccc(F)cc3F)nc2)cc1 (stereo not shown) [4-[[6-[2-(2,4-Difluorophenyl)-1,1-difluoro-2-hydroxy-3-(5-thioxo-4H-1,2,4-triazol-1-yl)propyl]-3-pyridyl]oxy]benzonitrile]",Observed Activity,Septoria glycines; 1 ppm,50%
same,Observed Activity,Septoria glycines; 2 ppm,70%
same,Observed Activity,Corynespora cassiicola; 0.5 ppm,0%
same,Observed Activity,Corynespora cassiicola; 1 ppm,0%
same,Observed Activity,Corynespora cassiicola; 2 ppm,20%
same,Observed Activity,Phakopsora pachyrhizi; 30 g/ha,0%
same,Observed Activity,Phakopsora pachyrhizi; 60 g/ha,10%
"CNC(=S)c1ccc(-c2noc(C(F)(F)F)n2)cc1 [N-methyl-4-[5-(trifluoromethyl)-1,2,4-oxadiazol-3-yl]benzenecarbothioamide]",Observed Activity,Sclerotinia sclerotiorum; 20 ppm,20%
same,Observed Activity,Botrytis cinerea; 2.22 ppm,0%
same,Observed Activity,Botrytis cinerea; 6.66 ppm,20%
same,Observed Activity,Botrytis cinerea; 20 ppm,70%
same,Observed Activity,Septoria tritici; 2.22 ppm,0%
same,Observed Activity,Septoria tritici; 6.66 ppm,70%
same,Observed Activity,Septoria tritici; 20 ppm,90%
same,Observed Activity,[1]; 0.08 ppm,70%
same,Observed Activity,Phakopsora pachyrhizi; 0.3 g/ha,6%
same,Observed Activity,Phakopsora pachyrhizi; 0.6 g/ha,74%
"CCC(=O)Oc1c(OC)ccnc1C(=O)N[C@@H](C)C(=O)O[C@@H](C)[C@@H](C)c1ccccc1C [Compound A-1.2, [(1S,2S)-1-methyl-2-(o-tolyl)propyl] (2S)-2-[(4-methoxy-3-propanoyloxy-pyridine-2-carbonyl)amino]propanoate]",Observed Activity,Septoria glycines; 0.03 ppm,20%
same,Observed Activity,Septoria glycines; 0.06 ppm,20%
same,Observed Activity,Sclerotinia sclerotiorum; 0.02 ppm,0%
same,Observed Activity,Sclerotinia sclerotiorum; 0.1 ppm,0%
same,Observed Activity,Sclerotinia sclerotiorum; 0.2 ppm,0%
same,Observed Activity,Sclerotinia sclerotiorum; 2 ppm,70%
same,Observed Activity,Botrytis cinerea; 2 ppm,70%
same,Observed Activity,Septoria tritici; 0.02 ppm,20%
same,Observed Activity,Septoria tritici; 0.03 ppm,50%
same,Observed Activity,Septoria tritici; 0.06 ppm,70%
same,Observed Activity,Septoria tritici; 0.1 ppm,70%
same,Observed Activity,Corynespora cassiicola; 0.06 ppm,0%
same,Observed Activity,[1]; 0.02 ppm,0%
same,Observed Activity,[1]; 0.1 ppm,0%
same,Observed Activity,[1]; 0.2 ppm,0%
same,Observed Activity,Phakopsora pachyrhizi; 0.3 g/ha,18%
same,Observed Activity,Phakopsora pachyrhizi; 0.6 g/ha,55%
CCN(C)C=Nc1cc(C)c(Oc2ccccc2F)cc1Cl [N′-[2-chloro-4-(2-fluorophenoxy)-5-methyl-phenyl]-N-ethyl-N-methyl-formamidine],Observed Activity,Phakopsora pachyrhizi; 1.5 g/ha,46%
same,Observed Activity,Phakopsora pachyrhizi; 3 g/ha,80%
"CNC(=O)C(F)(F)c1ccc(-c2noc(C(F)(F)F)n2)cc1 [2,2-Difluoro-N-methyl-2-[4-[5-(trifluoromethyl)-1,2,4-oxadiazol-3-yl]phenyl]acetamide]",Observed Activity,Septoria tritici; 20 ppm,20%
same,Observed Activity,[1]; 0.08 ppm,20%
same,Observed Activity,Phakopsora pachyrhizi; 0.3 g/ha,0%
same,Observed Activity,Phakopsora pachyrhizi; 0.6 g/ha,4%
